Source: ChEMBL document CHEMBL4507260 (2021)

Tests used:
Details in all cases: Compound concentration 1000.0 nM
[1] = biological target: Receptor-interacting serine/threonine-protein kinase 1 (Homo sapiens) (UniProt Q13546)
[2] = test system: Tyrosine-protein kinase ABL1 (Homo sapiens), P00519 [Q252H]
[3] = test system: Receptor-type tyrosine-protein kinase FLT3 (Homo sapiens), P36888 [UNDEFINED MUTATION]
[4] = biological target: Megakaryocyte-associated tyrosine-protein kinase (Homo sapiens) (UniProt P42679)
[5] = biological target: NT-3 growth factor receptor (Homo sapiens) (UniProt Q16288)
[6] = biological target: Serine/threonine-protein kinase Sgk1 (Homo sapiens) (UniProt O00141)
[7] = biological target: Platelet-derived growth factor receptor alpha (Homo sapiens) (UniProt P16234)
[8] = biological target: Dual specificity protein kinase TTK (Homo sapiens) (UniProt P33981)
[9] = biological target: Serine/threonine-protein kinase NIM1 (Homo sapiens) (UniProt Q8IY84)
[10] = biological target: Receptor tyrosine-protein kinase erbB-4 (Homo sapiens) (UniProt Q15303)
[11] = biological target: cAMP-dependent protein kinase catalytic subunit alpha (Homo sapiens) (UniProt P17612)
[12] = biological target: Serine/threonine-protein kinase Nek1 (Homo sapiens) (UniProt Q96PY6)
[13] = biological target: Serine/threonine-protein kinase Nek11 (Homo sapiens) (UniProt Q8NG66)
[14] = biological target: G protein-coupled receptor kinase 4 (Homo sapiens) (UniProt P32298)
[15] = biological target: Inhibitor of nuclear factor kappa-B kinase subunit beta (Homo sapiens) (UniProt O14920)
[16] = biological target: Tyrosine-protein kinase Fes/Fps (Homo sapiens) (UniProt P07332)
[17] = biological target: Serine/threonine-protein kinase PAK 2 (Homo sapiens) (UniProt Q13177)
[18] = biological target: Serine/threonine-protein kinase pim-3 (Homo sapiens) (UniProt Q86V86)
[19] = biological target: Cyclin-dependent kinase 16 (Homo sapiens) (UniProt Q00536)
[20] = test system: Tyrosine-protein kinase ABL1 (Homo sapiens), P00519 [F317I]
[21] = biological target: Mitogen-activated protein kinase 8 (Homo sapiens) (UniProt P45983)
[22] = biological target: Tyrosine-protein kinase Fer (Homo sapiens) (UniProt P16591)
[23] = biological target: Serine/threonine-protein kinase MRCK alpha (Homo sapiens) (UniProt Q5VT25)
[24] = biological target: Interleukin-1 receptor-associated kinase 3 (Homo sapiens) (UniProt Q9Y616)
[25] = biological target: Serine/threonine-protein kinase Sgk3 (Homo sapiens) (UniProt Q96BR1)
[26] = biological target: Protein-tyrosine kinase 2-beta (Homo sapiens) (UniProt Q14289)
[27] = biological target: Protein kinase C eta type (Homo sapiens) (UniProt P24723)
[28] = biological target: Tyrosine-protein kinase FRK (Homo sapiens) (UniProt P42685)
[29] = biological target: MAP kinase-activated protein kinase 2 (Homo sapiens) (UniProt P49137)
[30] = biological target: Mitogen-activated protein kinase kinase kinase 20 (Homo sapiens) (UniProt Q9NYL2)
[31] = biological target: Calcium/calmodulin-dependent protein kinase type II subunit alpha (Homo sapiens) (UniProt Q9UQM7)
[32] = biological target: Serine/threonine-protein kinase BRSK1 (Homo sapiens) (UniProt Q8TDC3)
[33] = biological target: Serine/threonine-protein kinase tousled-like 1 (Homo sapiens) (UniProt Q9UKI8)
[34] = biological target: cGMP-dependent protein kinase 1 (Homo sapiens) (UniProt Q13976)
[35] = biological target: Serine/threonine-protein kinase Nek6 (Homo sapiens) (UniProt Q9HC98)
[36] = biological target: 1-phosphatidylinositol 3-phosphate 5-kinase (Homo sapiens) (UniProt Q9Y2I7)
[37] = test system: Tyrosine-protein kinase ABL1 (Homo sapiens), P00519 [M351T]
[38] = test system: Tyrosine-protein kinase ABL1 (Homo sapiens), P00519 [E255K]
[39] = biological target: Dual specificity protein kinase CLK3 (Homo sapiens) (UniProt P49761)
[40] = biological target: Eukaryotic translation initiation factor 2-alpha kinase 1 (Homo sapiens) (UniProt Q9BQI3)
[41] = biological target: Serine/threonine-protein kinase mTOR (Homo sapiens) (UniProt P42345)
[42] = biological target: Serine/threonine-protein kinase PLK3 (Homo sapiens) (UniProt Q9H4B4)
[43] = biological target: Discoidin domain-containing receptor 2 (Homo sapiens) (UniProt Q16832)
[44] = biological target: Serine/threonine-protein kinase PLK1 (Homo sapiens) (UniProt P53350)
[45] = biological target: Serine/threonine-protein kinase 3 (Homo sapiens) (UniProt Q13188)

Measured: residual activity

Mitogen-activated protein kinase kinase kinase 20 (Homo sapiens), sequence (Q9NYL2 2-800 limits assumed): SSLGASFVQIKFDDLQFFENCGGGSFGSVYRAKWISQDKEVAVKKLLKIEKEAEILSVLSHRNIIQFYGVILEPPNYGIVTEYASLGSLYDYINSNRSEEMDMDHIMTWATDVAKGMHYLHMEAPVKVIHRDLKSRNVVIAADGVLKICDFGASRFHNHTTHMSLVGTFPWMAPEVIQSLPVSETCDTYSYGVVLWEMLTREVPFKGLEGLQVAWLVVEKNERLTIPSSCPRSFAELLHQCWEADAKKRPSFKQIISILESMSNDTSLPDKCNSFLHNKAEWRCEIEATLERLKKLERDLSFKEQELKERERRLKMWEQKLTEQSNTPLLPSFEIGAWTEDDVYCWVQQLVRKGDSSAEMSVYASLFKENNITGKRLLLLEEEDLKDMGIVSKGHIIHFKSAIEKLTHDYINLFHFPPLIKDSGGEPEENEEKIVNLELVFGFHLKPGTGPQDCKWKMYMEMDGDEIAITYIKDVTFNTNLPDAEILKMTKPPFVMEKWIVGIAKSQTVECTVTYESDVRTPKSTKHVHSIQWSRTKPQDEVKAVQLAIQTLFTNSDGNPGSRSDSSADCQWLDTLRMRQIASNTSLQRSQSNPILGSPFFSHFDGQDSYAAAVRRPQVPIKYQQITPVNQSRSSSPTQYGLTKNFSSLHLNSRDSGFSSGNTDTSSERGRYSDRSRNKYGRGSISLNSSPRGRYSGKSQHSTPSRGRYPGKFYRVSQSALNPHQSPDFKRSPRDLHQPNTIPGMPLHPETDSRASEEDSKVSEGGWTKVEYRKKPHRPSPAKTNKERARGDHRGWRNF
1-phosphatidylinositol 3-phosphate 5-kinase (Homo sapiens), sequence (Q9Y2I7 whole entry): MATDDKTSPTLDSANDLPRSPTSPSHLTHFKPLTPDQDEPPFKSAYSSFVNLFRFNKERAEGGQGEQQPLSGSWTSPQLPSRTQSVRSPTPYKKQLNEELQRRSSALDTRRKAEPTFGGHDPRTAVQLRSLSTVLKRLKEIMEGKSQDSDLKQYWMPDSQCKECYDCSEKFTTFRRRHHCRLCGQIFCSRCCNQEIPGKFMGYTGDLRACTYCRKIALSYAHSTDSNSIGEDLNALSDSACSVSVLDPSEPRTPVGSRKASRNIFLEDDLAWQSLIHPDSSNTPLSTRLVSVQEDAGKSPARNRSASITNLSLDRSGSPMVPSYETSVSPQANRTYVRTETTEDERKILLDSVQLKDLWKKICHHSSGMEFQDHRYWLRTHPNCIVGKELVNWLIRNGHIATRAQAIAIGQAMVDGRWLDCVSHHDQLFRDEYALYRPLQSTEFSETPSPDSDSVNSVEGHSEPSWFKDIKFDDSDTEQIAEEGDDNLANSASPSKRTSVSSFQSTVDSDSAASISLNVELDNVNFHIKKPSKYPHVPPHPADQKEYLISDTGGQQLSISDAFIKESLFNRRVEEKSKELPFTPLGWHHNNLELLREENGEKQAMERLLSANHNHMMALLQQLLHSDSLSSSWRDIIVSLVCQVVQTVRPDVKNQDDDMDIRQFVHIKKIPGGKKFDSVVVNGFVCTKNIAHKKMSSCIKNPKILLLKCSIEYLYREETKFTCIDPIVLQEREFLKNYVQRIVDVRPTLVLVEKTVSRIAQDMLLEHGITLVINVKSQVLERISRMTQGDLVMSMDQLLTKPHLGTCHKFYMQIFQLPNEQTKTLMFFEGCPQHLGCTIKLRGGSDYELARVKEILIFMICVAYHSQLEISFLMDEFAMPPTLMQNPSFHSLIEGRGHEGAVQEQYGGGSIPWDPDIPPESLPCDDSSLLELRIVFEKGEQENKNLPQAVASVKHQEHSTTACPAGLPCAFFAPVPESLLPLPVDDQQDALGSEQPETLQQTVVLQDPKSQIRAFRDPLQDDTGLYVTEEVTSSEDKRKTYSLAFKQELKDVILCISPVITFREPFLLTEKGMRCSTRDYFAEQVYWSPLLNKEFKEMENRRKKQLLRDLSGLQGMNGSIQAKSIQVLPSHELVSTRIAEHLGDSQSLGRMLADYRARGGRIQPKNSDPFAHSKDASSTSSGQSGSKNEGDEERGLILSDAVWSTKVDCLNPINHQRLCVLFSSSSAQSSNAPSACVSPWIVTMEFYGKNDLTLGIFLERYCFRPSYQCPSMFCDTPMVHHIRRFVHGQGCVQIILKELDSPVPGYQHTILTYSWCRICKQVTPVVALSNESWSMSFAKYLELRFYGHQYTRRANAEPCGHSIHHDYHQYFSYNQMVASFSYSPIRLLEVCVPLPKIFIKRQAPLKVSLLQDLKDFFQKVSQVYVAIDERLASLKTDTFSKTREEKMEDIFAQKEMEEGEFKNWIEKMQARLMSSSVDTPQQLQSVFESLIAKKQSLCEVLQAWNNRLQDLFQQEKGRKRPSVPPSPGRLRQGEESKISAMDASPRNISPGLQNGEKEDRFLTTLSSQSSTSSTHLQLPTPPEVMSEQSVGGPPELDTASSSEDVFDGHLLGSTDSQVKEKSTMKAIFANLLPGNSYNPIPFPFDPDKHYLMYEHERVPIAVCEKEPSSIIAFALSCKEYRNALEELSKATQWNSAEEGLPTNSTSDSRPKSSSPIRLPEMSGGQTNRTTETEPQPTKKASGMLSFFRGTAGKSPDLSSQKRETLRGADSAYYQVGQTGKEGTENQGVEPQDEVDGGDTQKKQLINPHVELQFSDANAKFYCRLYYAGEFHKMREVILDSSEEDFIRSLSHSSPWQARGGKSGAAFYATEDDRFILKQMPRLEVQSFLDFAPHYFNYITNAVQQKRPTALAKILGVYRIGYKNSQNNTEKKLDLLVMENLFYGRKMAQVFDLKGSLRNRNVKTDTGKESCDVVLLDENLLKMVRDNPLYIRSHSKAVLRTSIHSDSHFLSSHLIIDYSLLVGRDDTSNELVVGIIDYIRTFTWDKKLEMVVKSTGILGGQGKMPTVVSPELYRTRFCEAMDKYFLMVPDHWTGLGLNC
Serine/threonine-protein kinase PLK1 (Homo sapiens), sequence (P53350 whole entry): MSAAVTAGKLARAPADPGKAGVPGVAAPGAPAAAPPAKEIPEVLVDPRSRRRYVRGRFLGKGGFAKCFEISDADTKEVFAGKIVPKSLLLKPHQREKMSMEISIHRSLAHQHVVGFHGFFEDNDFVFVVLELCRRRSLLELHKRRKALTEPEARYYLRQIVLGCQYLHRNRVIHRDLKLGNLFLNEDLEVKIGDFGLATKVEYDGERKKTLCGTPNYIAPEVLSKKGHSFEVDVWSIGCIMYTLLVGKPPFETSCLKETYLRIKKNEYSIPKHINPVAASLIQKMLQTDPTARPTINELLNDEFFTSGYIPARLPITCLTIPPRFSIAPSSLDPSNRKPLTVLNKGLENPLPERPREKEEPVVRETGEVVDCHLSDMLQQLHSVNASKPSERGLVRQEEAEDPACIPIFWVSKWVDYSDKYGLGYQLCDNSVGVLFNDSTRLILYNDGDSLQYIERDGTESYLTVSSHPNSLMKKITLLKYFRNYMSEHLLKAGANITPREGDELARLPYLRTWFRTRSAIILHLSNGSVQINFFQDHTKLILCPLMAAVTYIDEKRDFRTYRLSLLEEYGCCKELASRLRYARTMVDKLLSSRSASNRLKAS
Megakaryocyte-associated tyrosine-protein kinase (Homo sapiens), sequence (P42679 whole entry): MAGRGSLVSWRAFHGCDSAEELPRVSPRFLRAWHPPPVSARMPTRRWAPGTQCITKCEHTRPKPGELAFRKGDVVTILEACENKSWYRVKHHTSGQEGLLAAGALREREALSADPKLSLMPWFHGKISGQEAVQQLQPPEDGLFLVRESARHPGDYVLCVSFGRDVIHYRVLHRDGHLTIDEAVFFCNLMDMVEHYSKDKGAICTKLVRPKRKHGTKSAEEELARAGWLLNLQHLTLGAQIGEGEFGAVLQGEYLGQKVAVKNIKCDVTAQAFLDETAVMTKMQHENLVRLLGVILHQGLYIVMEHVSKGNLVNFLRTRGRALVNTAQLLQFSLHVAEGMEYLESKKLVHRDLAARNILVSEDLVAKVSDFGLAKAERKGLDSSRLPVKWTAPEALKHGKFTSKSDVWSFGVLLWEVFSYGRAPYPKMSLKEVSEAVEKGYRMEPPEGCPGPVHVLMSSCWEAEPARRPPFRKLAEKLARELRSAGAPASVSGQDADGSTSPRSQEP
Platelet-derived growth factor receptor alpha (Homo sapiens), sequence (P16234 whole entry): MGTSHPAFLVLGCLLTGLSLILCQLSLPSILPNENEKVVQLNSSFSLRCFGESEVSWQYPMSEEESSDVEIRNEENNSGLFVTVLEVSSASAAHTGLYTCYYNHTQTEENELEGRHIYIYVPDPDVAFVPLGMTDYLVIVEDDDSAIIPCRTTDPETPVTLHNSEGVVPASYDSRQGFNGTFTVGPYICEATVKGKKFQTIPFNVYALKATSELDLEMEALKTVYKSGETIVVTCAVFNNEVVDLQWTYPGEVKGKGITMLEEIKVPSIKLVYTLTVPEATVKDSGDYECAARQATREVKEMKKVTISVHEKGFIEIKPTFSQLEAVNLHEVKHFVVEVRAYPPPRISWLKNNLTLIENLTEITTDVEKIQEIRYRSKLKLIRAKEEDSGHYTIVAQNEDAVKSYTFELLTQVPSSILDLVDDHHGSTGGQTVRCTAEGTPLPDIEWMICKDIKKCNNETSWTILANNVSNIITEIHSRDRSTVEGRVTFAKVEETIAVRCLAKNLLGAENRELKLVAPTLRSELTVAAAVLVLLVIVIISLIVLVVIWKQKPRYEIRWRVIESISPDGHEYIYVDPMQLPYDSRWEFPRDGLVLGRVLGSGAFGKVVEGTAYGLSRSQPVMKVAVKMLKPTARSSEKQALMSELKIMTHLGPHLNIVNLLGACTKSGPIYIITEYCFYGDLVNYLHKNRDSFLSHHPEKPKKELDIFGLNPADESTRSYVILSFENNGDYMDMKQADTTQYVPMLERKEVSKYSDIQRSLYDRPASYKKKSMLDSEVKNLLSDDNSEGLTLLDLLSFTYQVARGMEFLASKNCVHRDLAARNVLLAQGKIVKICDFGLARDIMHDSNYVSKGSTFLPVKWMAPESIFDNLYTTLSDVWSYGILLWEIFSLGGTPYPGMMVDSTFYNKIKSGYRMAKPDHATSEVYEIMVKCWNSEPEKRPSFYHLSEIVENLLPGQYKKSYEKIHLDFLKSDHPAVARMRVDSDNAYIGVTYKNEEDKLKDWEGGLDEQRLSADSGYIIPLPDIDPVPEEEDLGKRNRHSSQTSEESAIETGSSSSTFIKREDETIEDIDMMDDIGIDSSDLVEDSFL

CSc1cccnc1N1CCN(Cc2nc3ccccc3[nH]2)CC1 [A-769]
inactive: [1] 100% | [2] 67% | [3] 100% | [5] 83% | [6] 82% | [7] 89% | [8] 98% | [9] 84% | [10] 83% | [11] 92% | [12] 100% | [13] 79% | [14] 88% | [15] 86% | [16] 98% | [17] 100% | [18] 94% | [19] 81% | [20] 100% | [21] 77% | [22] 100% | [23] 100% | [24] 94% | [25] 95% | [26] 100% | [27] 100% | [28] 92% | [29] 80% | [30] 100% | [31] 100% | [32] 100% | [33] 100% | [34] 100% | [35] 98% | [36] 100% | [37] 94% | [38] 67% | [39] 85% | [40] 93% | [41] 100% | [42] 80% | [43] 89% | [44] 78% | [45] 87%
active: [4] 45%

c1ccc(N2CCN(Cc3nc4ccccc4[nH]3)CC2)nc1 [ABT-724]
inactive: [1] 100% | [2] 93% | [3] 100% | [4] 100% | [5] 87% | [6] 100% | [7] 100% | [8] 100% | [9] 100% | [10] 95% | [11] 91% | [12] 100% | [13] 100% | [14] 100% | [15] 100% | [16] 100% | [17] 100% | [18] 100% | [19] 100% | [20] 100% | [21] 100% | [22] 100% | [23] 100% | [24] 100% | [25] 100% | [26] 100% | [27] 89% | [28] 100% | [29] 100% | [30] 92% | [31] 100% | [32] 91% | [33] 95% | [34] 100% | [35] 100% | [36] 100% | [37] 100% | [38] 100% | [39] 100% | [40] 100% | [41] 100% | [42] 100% | [43] 100% | [44] 100% | [45] 100%
